In patent US8106055B2, “Substituted amide compounds” (Gruenenthal GmbH, priority 2007, dated 2012):

These compounds were tested against T1, human bradykinin 1 receptor (B1R) (Homo sapiens, UniProt P46663) (assay: Functional investigation on the human bradykinin 1 receptor (B1R), Ca2+ FLIPR assay in CHO K1 hB1R cells). Conditions: CHO-K1, B1R antagonism human; test substance 10 μM; Ca2+ FLIPR, CHO K1 hB1R cells; read-out: B1R Ant. h [10 μM] % Inhibition.
T1 construct: expressed in transfected cells; host or cells: CHO K1 cells
T1 sequence (P46663 1-353): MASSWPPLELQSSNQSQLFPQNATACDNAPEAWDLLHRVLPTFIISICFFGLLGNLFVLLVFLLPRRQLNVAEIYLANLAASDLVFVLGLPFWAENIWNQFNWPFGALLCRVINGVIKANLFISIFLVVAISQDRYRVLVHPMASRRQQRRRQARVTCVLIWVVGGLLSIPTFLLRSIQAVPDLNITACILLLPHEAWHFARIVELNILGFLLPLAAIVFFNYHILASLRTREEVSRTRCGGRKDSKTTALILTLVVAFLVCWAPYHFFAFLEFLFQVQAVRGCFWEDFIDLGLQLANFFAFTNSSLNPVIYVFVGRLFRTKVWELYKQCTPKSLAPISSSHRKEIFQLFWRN
Type: cell-based
How it was run: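 Cells were dye-loaded with Fluo-4 plus probenecid, then test substances added and Ca2+ influx compared with agonist control for % activation. After 10-20 min, EC80 agonist (Lys-Des-Arg9-bradykinin human; Des-Arg9-bradykinin rat) was applied; suppression gave % inhibition and IC50 values.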

Row | Compound | inhibition at 10 µM [%]
1 | COc1cc(C)c(S(=O)(=O)N(C)CCOCC(=O)NCCC2CCC(C(c3cccs3)N(C)C)CC2)c(C)c1 (centres unmarked) [Example 84, N-(2-(4-((dimethylamino)(thiophen-2-yl)methyl)cyclohexyl)ethyl)-2-(2-(4-methoxy-N,2,6-trimethylphenylsulfonamido)ethoxy)acetamide] | 104
2 | CN(C)C(c1cccs1)C1CCC(CCNC(=O)COCCN(C)S(=O)(=O)c2ccc(F)cc2)CC1 (centres unmarked) [Example 85, N-(2-(4-((dimethylamino)(thiophen-2-yl)methyl)cyclohexyl)ethyl)-2-(2-(4-fluoro-N-methylphenylsulfonamido)ethoxy)acetamide] | 7
3 | COc1cc(C)c(S(=O)(=O)N2CCC(OCC(=O)NCC3CCC(C(c4cccs4)N(C)C)CC3)C2)c(C)c1 (centres unmarked) [Example 86, N-((4-((dimethylamino)(thiophen-2-yl)methyl)cyclohexyl)methyl)-2-(1-(4-methoxy-2,6-dimethylphenylsulfonyl)pyrrolidin-3-yloxy)acetamide] | 98
4 | CN(C)C(c1cccc(F)c1)C1CCC(CNC(=O)COCC2CCCCN2S(=O)(=O)c2ccc(Cl)c(Cl)c2)CC1 (centres unmarked) [Example 87, 2-((1-(3,4-dichlorophenylsulfonyl)piperidin-2-yl)methoxy)-N-((4-((dimethylamino)(3-fluorophenyl)methyl)cyclohexyl)methyl)acetamide] | 57
5 | COc1ccc(S(=O)(=O)N2CCCCC2COCC(=O)NCC2CCC(C(c3ccccc3)N(C)C)CC2)cc1 (centres unmarked) [Example 88, N-((4-((dimethylamino)(phenyl)methyl)cyclohexyl)methyl)-2-((1-(4-methoxyphenylsulfonyl)piperidin-2-yl)methoxy)acetamide] | 80
6 | COc1ccc(S(=O)(=O)N2CCCCC2CCOCC(=O)NCC2CCC(C(c3ccccc3)N(C)C)CC2)cc1 (centres unmarked) [Example 89, N-((4-((dimethylamino)(phenyl)methyl)cyclohexyl)methyl)-2-(2-(1-(4-methoxyphenylsulfonyl)piperidin-2-yl)ethoxy)acetamide] | 42
7 | COc1ccc(S(=O)(=O)N2CCCCC2CCOCC(=O)NCC2CCC(C(c3cccs3)N(C)C)CC2)cc1 (centres unmarked) [Example 90, N-((4-((dimethylamino)(thiophen-2-yl)methyl)cyclohexyl)methyl)-2-(2-(1-(4-methoxyphenylsulfonyl)piperidin-2-yl)ethoxy)acetamide] | 49
8 | CN(C)C(c1ccccc1)C1CCC(CNC(=O)COCCN(C)S(=O)(=O)c2cccc(C(F)(F)F)c2)CC1 (centres unmarked) [Example 91, N-((4-((dimethylamino)(phenyl)methyl)cyclohexyl)methyl)-2-(2-(N-methyl-3-(trifluoromethyl)phenylsulfonamido)ethoxy)acetamide] | 42
9 | CN(C)C(c1cccs1)C1CCC(CNC(=O)COCCN(C)S(=O)(=O)c2cccc(C(F)(F)F)c2)CC1 (centres unmarked) [Example 92, N-((4-((dimethylamino)(thiophen-2-yl)methyl)cyclohexyl)methyl)-2-(2-(N-methyl-3-(trifluoromethyl)phenylsulfonamido)ethoxy)acetamide] | 31
10 | CN(C)C(c1cccs1)C1CCC(CNC(=O)COCCN(C)S(=O)(=O)c2ccc(OC(F)(F)F)cc2)CC1 (centres unmarked) [Example 93, N-((4-((dimethylamino)(thiophen-2-yl)methyl)cyclohexyl)methyl)-2-(2-(N-methyl-4-(trifluoromethoxy)phenylsulfonamido)ethoxy)acetamide] | -2
11 | COc1ccc(S(=O)(=O)N2CCC(OCC(=O)NCCC3CCC(C(c4cccs4)N(C)C)CC3)C2)cc1OC (centres unmarked) [Example 94, 2-(1-(3,4-dimethoxyphenylsulfonyl)pyrrolidin-3-yloxy)-N-(2-(4-((dimethylamino)(thiophen-2-yl)methyl)cyclohexyl)ethyl)acetamide] | -5
